Assay results from article PMC7827406, “Structure–Activity Relationship (SAR) Study of Spautin-1 to Entail the Discovery of Novel NEK4 Inhibitors” (International Journal of Molecular Sciences, 2021).
Read-outs that look alike come from different tables or passages of the source.

Columns and labels:
Test in all cases: biochemical
Design in all cases: Eurofins KinaseProfiler full panel at Km ATP, residual kinase activity (%) relative to DMSO
MEK2(h) = target: T1, MEK2(h) (Homo sapiens, UniProt P36507)
T1 construct: gene MAP2K2
Method: (§1) Eurofins performed a “Full KP Panel [Km ATP], KinaseProfile” which contains 429 radiometric kinase activity assays. The remaining kinase activity (%) was determined after treatment with the compounds at a concentration of 10 µM (Cfr. supporting information). Since we could not confirm the interaction between Spautin-1 analogues and USP13, a kinase screening was performed using a set of four compounds (Spautin-1 and three analogues) to discover off-targets and identify kinases that are potentially responsible for the reduction in cell viability observed in our screen (Table 2). The KINOMEscan from Eurofins was performed (see Table S1). This screen consists of a competitive binding assay in which the DNA-tagged kinase is incubated with one of the compounds in the presence of immobilized active site binding ligands. Binding of the compounds to the kinase hampers the binding of the kinase to the ligands and this inhibition was quantified by qPCR. The residual kinase activity, which represents the percentage of kinase attached to the immobilized ligands, was determined for 428 kinases at a standard screening concentration of 10 µM of the compounds dissolved in DMSO [61].

PKG1β(h) = target: T2, PKG1β(h) (Homo sapiens, UniProt Q13976)
T2 construct: gene PRKG1; isoform 1beta
T2 sequence (Q13976 1-671): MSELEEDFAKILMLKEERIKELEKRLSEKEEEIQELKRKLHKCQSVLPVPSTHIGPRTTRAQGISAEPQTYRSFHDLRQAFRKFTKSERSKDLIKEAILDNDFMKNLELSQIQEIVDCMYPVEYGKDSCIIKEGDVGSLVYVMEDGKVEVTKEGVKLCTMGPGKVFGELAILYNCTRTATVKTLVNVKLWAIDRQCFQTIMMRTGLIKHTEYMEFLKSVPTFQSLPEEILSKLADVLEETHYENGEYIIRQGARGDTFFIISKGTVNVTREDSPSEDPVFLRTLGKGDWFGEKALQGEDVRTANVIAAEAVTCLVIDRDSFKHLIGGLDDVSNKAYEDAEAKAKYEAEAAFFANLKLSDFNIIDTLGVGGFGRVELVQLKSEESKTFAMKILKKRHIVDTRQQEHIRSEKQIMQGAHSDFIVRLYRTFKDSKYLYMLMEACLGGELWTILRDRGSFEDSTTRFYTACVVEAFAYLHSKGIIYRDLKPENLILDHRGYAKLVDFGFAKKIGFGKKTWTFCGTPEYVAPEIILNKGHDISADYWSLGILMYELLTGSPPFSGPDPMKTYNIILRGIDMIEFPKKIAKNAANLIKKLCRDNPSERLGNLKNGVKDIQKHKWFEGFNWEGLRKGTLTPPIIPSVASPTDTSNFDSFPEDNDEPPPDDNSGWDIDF
Method: as §1

TAK1(h) = target: T3, TAK1(h) (Homo sapiens, UniProt O43318)
T3 construct: gene MAP3K7
T3 sequence (O43318 1-606): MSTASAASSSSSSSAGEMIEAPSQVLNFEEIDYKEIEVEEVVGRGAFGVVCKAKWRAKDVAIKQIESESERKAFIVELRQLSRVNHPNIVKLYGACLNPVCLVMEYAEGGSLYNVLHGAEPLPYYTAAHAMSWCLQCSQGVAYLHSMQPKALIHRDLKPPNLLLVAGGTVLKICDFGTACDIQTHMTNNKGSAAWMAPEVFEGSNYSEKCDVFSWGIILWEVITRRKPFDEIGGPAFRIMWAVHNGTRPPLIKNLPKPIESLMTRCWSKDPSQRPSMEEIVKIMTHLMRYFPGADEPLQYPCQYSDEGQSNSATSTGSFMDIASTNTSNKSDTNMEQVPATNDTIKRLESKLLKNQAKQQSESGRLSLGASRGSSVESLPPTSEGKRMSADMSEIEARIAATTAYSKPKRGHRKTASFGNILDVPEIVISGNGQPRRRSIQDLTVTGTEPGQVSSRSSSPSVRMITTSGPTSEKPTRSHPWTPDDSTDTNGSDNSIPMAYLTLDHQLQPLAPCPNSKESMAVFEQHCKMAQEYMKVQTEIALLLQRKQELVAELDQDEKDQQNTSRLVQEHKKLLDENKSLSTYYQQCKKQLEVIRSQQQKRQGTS
Method: as §1

TGFBR1(h) = target: T4, TGFBR1(h) (Homo sapiens, UniProt P36897)
T4 sequence (P36897 1-503): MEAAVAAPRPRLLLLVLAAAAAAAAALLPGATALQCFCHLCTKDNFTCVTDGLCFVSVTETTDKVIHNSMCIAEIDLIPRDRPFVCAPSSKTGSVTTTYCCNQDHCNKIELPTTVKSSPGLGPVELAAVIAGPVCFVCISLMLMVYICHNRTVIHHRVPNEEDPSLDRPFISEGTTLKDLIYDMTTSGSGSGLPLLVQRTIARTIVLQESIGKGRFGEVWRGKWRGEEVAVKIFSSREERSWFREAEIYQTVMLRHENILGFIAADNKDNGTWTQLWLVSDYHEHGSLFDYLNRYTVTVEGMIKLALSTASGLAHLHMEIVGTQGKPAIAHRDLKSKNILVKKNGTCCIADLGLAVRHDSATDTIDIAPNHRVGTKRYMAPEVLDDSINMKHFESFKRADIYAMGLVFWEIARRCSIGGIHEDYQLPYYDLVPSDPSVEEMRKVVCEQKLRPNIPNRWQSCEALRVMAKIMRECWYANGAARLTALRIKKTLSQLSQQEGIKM
Method: as §1

[1] = read-out: Residual activity (%) 5ay
[2] = read-out: Residual activity (%) Spautin-1 5aa
[3] = read-out: Residual activity (%) 5at
[4] = read-out: Residual activity (%) 5as

T1 sequence (P36507 whole entry): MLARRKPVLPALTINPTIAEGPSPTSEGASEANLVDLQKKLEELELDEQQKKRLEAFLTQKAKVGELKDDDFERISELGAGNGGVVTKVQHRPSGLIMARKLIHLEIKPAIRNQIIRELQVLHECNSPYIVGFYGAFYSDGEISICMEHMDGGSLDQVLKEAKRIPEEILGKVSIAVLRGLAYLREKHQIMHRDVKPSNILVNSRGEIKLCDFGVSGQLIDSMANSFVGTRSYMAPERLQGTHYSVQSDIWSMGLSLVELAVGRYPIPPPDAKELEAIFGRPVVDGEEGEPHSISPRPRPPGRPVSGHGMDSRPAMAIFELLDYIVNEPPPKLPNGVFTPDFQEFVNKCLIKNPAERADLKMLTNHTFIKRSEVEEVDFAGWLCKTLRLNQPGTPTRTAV

Compound `COc1ccc2ncnc(Nc3cccc(F)c3)c2c1` [5ay, N-(3-Fluorophenyl)-6-Methoxy-4-Quinazolinamine] has a remaining activity at 10 µM (MEK2(h); [1]) of 95%, a remaining activity at 10 µM (PKG1β(h); [1]) of 94% and a remaining activity at 10 µM (TAK1(h); [1]) of 74%. The remaining activity at 10 µM (TGFBR1(h); [1]) was 94%.
In the case of `Fc1ccc(CNc2ncnc3ccc(F)cc23)cc1` [5aa, 6-Fluoro-N-(4-fluorobenzyl)-4-Quinazolinamine], the remaining activity at 10 µM (MEK2(h); [2]) is reported as 92%, the remaining activity at 10 µM (PKG1β(h); [2]) is reported as 91% and the remaining activity at 10 µM (TAK1(h); [2]) is reported as 74%. For the same compound, the remaining activity at 10 µM (TGFBR1(h); [2]) was 87%.
`Fc1ccc2ncnc(NCCc3ccc(Cl)cc3)c2c1` [5at, N-[2-(4-Chlorophenyl)Ethyl]-6-Fluoro-4-Quinazolinamine] was tested, and the remaining activity at 10 µM (MEK2(h); [3]) was 99%, the remaining activity at 10 µM (PKG1β(h); [3]) was 76% and the remaining activity at 10 µM (TAK1(h); [3]) was 82%. The remaining activity at 10 µM (TGFBR1(h); [3]) was 86%.
With `Fc1ccc(CCNc2ncnc3ccc(F)cc23)cc1` [5as, 6-Fluoro-N-[2-(4-Fluorophenyl)Ethyl]-4-Quinazolinamine] the remaining activity at 10 µM (MEK2(h); [4]) was 96%, the remaining activity at 10 µM (PKG1β(h); [4]) was 84% and the remaining activity at 10 µM (TAK1(h); [4]) was 83%. The remaining activity at 10 µM (TGFBR1(h); [4]) was 97%.
